{
  "source": "paper PMC12114461",
  "about": "“A Natural Inhibitor, 1′S-1′-Acetoxychavicol Acetate, Against Testosterone-Induced Alopecia via NADPH Oxidase Regulation” (Molecules, 2025)",
  "type_in_all_cases": "biochemical",
  "key": {"Nox1 (hNox1)": {"target": "T1, Nox1 (hNox1) (Homo sapiens, UniProt Q9Y5S8)", "T1 construct": "membranes from transgenic Drosophila (Duox knockdown) over-expressing human Nox1", "T1 sequence (Q9Y5S8 1-564)": "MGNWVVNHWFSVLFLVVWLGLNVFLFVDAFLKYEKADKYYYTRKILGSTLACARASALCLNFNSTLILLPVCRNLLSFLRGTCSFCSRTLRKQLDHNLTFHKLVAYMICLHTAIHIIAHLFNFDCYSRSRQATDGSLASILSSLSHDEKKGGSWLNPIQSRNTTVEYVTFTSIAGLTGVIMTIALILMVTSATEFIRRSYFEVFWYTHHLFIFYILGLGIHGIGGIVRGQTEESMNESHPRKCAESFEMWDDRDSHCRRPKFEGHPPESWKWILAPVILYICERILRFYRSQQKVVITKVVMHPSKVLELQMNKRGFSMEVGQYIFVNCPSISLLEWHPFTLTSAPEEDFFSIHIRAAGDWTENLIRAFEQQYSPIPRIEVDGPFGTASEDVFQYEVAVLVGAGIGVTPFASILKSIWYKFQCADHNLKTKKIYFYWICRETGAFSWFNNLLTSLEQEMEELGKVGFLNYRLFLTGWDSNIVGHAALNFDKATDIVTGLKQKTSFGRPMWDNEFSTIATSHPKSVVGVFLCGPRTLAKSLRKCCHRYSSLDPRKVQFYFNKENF", "assay": "lucigenin chemiluminescence ROS assay in Drosophila membranes expressing hNox1"}, "Nox4 (hNox4)": {"target": "T2, Nox4 (hNox4) (Homo sapiens, UniProt Q9NPH5)", "T2 construct": "membranes from transgenic Drosophila (Duox knockdown) over-expressing human Nox4", "T2 sequence (Q9NPH5 1-578)": "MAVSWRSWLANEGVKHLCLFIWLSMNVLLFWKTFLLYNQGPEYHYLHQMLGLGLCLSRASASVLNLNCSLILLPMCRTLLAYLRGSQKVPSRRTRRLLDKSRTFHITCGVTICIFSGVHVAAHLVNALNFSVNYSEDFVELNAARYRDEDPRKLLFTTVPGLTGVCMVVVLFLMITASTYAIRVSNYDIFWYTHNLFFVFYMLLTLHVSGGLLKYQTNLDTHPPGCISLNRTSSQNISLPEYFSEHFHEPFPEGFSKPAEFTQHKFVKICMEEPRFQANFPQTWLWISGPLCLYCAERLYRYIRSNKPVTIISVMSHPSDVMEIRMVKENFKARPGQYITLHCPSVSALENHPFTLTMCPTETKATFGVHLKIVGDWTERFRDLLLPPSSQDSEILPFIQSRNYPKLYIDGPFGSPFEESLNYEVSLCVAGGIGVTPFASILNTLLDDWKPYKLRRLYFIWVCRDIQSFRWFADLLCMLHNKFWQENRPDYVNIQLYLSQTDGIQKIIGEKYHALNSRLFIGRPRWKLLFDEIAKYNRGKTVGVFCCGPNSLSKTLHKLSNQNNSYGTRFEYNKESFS", "assay": "lucigenin chemiluminescence ROS assay in Drosophila membranes expressing hNox4"}, "Nox2 (hNox2)": {"target": "T3, Nox2 (hNox2) (Homo sapiens, UniProt P04839)", "T3 construct": "gene CYBB; membranes from transgenic Drosophila (Duox knockdown) over-expressing human Nox2", "T3 sequence (P04839 2-570)": "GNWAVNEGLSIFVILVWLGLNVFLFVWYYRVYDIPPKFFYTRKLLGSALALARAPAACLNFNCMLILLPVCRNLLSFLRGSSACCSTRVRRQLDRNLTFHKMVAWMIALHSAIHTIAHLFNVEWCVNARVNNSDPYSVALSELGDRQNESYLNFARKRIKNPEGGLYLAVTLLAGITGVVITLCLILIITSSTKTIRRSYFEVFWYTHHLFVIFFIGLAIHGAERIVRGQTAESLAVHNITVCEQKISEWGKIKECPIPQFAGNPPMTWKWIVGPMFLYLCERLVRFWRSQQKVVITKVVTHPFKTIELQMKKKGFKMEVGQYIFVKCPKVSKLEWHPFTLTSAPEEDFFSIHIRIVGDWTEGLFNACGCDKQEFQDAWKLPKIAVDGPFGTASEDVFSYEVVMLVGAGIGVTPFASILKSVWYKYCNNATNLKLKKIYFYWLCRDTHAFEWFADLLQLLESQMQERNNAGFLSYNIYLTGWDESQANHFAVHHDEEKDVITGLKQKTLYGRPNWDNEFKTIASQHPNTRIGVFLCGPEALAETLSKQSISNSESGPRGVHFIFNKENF", "assay": "lucigenin chemiluminescence ROS assay in Drosophila membranes expressing hNox2"}, "Duox1 (hDuox1)": {"target": "T4, Duox1 (hDuox1) (Homo sapiens, UniProt Q9NRD9)", "T4 construct": "membranes from transgenic Drosophila (Duox knockdown) over-expressing human Duox1", "T4 sequence (Q9NRD9 22-1551)": "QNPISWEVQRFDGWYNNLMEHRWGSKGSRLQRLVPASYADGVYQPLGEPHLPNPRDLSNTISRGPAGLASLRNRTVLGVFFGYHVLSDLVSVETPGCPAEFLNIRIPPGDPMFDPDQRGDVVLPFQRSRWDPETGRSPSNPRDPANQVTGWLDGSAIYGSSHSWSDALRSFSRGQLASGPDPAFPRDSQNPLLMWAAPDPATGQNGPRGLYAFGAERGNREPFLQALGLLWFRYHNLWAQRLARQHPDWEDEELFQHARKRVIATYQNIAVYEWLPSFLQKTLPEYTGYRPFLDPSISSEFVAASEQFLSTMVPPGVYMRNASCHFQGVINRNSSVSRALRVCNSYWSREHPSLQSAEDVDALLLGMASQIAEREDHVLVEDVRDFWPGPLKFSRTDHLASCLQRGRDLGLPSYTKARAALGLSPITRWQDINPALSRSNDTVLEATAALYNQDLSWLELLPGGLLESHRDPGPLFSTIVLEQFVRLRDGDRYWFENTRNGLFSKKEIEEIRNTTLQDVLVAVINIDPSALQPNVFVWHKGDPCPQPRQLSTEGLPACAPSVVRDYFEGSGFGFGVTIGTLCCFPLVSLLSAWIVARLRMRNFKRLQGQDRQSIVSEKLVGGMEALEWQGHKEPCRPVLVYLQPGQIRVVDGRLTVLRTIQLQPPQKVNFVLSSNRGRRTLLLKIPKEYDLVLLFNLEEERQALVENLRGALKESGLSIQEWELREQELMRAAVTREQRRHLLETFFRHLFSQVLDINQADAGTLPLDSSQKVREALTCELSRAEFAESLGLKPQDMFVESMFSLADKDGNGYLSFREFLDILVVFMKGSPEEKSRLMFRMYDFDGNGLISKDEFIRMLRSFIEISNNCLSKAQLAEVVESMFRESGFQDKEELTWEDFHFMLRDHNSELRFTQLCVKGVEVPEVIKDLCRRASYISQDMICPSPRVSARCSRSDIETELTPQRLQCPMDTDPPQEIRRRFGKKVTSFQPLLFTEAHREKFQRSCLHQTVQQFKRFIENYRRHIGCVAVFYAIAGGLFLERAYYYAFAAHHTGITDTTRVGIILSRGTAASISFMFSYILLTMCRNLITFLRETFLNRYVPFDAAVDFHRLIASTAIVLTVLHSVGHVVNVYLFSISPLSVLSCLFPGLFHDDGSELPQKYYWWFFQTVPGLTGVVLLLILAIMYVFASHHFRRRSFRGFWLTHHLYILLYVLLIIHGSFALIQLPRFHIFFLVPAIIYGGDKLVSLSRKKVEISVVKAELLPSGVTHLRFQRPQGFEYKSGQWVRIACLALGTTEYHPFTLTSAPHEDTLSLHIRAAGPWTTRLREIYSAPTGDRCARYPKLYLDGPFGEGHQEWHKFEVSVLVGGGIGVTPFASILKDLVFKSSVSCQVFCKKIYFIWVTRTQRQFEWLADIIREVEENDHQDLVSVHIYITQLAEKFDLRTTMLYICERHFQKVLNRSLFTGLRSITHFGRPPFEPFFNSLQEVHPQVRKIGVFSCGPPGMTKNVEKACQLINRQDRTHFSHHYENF", "assay": "lucigenin chemiluminescence ROS assay in Drosophila membranes expressing hDuox1"}},
  "data": [
    {"smiles": "C=C[C@H](OC(C)=O)c1ccc(OC(C)=O)cc1", "note": "[compound 26, 1′S-1′-acetoxychavicol acetate]", "values": [
      {"measurement": "IC50", "setting": "Nox1 (hNox1)", "result": 32.7, "unit": "µM"},
      {"measurement": "IC50", "setting": "Nox4 (hNox4)", "result": 31.3, "unit": "µM"},
      {"measurement": "IC50", "setting": "Nox2 (hNox2)", "result": 42.3, "unit": "µM"},
      {"measurement": "IC50", "setting": "Duox1 (hDuox1)", "result": 30.8, "unit": "µM"}
    ]}
  ]
}
